Measured values taken from patent publication US4303664A, “Novel penicillin derivatives containing a coumarin nucleus and medicines containing the same” (Teijin Limited, priority 1978, dated 1981).
In brackets after ≈: the same amount, converted by molar mass.

Experiments:
Assay type in all cases: cell-based
Rettgerella var. Tid-21 = test: Bactericidal test (MIC), Rettgerella var. Tid-21; details: (10) Rettgerella var. Tid-21; read-out: MIC
Description: (§1) Results of bactericidal tests (MIC, r/ml) on the penicillin derivatives of this invention prepared in the above examples are shown in the following table.

Enterobactor cloacae 147 = test: Bactericidal test (MIC), Enterobactor cloacae 147; details: (7) Enterobactor cloacae 147
Description: as §1

[1] = tested on: Pseudomonas aeruginosa GN-315; test: Bactericidal test (MIC), Pseudomonas aeruginosa GN-315; details: GN315; (15) Pseudomonas aeruginosa GN-315
Description: as §1

[2] = tested on: Pseudomonas aeruginosa 0-37; test: Bactericidal test (MIC), Pseudomonas aeruginosa 0-37; details: 037; (13) Pseudomonas aeruginosa 0-37
Description: as §1

Bacillus subtilis = test: Bactericidal test (MIC), Bacillus subtilis; details: (3) Bacillus subtilis
Description: as §1

Serratia G-18 = test: Bactericidal test (MIC), Serratia G-18; details: G18; (11) Serratia G-18; read-out: MIC
Description: as §1

[3] = tested on: Staphylococcus aureus 209-p; test: Bactericidal test (MIC), Staphylococcus aureus 209-p; details: (1) Staphylococcus aureus 209-p
Description: as §1

[4] = tested on: Enterobacter cloacae IF012937; test: Bactericidal test (MIC), Enterobacter cloacae IF012937; details: (8) Enterobacter cloacae IF012937
Description: as §1

[5] = tested on: Escherichia Coli NIHJ JC-2; test: Bactericidal test (MIC), Escherichia Coli NIHJ JC-2; details: NIHJJC2; (5) Escherichia Coli NIHJ JC-2
Description: as §1

Morganella var. G-2 = test: Bactericidal test (MIC), Morganella var. G-2; details: VAR.G2; (9) Morganella var. G-2; read-out: MIC
Description: as §1

[6] = tested on: Pseudomonas aeruginosa Tid-53; test: Bactericidal test (MIC), Pseudomonas aeruginosa Tid-53; details: TID53; (14) Pseudomonas aeruginosa Tid-53
Description: as §1

[7] = tested on: Pseudomonas aeruginosa 130; test: Bactericidal test (MIC), Pseudomonas aeruginosa 130; details: (16) Pseudomonas aeruginosa 130
Description: as §1

[8] = tested on: Pseudomonas aeruginosa IFO-3080; test: Bactericidal test (MIC), Pseudomonas aeruginosa IFO-3080; details: IFO3080; (12) Pseudomonas aeruginosa IFO-3080; read-out: MIC
Description: as §1

[9] = tested on: Staphylococcus aureus 1248; test: Bactericidal test (MIC), Staphylococcus aureus 1248; details: (2) Staphylococcus aureus 1248; read-out: MIC
Description: as §1

[10] = tested on: Klebsiella neumoniae ATCC10031; test: Bactericidal test (MIC), Klebsiella neumoniae ATCC10031; details: (6) Klebsiella neumoniae ATCC10031; read-out: MIC
Description: as §1

[11] = tested on: Salmonella typhimurium G-20; test: Bactericidal test (MIC), Salmonella typhimurium G-20; details: Salmonella enterica; (4) Salmonella typhimurium G-20
Description: as §1

SMILES | MIC (Rettgerella var. Tid-21) | MIC (Enterobactor cloacae 147) | MIC [1] | MIC [2] | MIC (Bacillus subtilis) | MIC (Serratia G-18) | MIC [3] | MIC [4] | MIC [5] | MIC (Morganella var. G-2) | MIC [6] | MIC [7] | MIC [8] | MIC [9] | MIC [10] | MIC [11]
CC1(C)S[C@@H]2[C@H](NC(=O)[C@H](NC(=O)c3cc4cccc(O)c4oc3=O)c3ccccc3)C(=O)N2[C@H]1C(=O)O [Example 26, D(-)-α-(8-Hydroxycoumarin-3-carbonamido)benzylpenicillin] | 1.56 µg/mL (≈ 2.9 µM) | 3.13 µg/mL (≈ 5.82 µM) | 1.56 µg/mL (≈ 2.9 µM) | 50 µg/mL (≈ 93 µM) | < 0.4 µg/mL | 12.5 µg/mL (≈ 23.3 µM) | < 0.4 µg/mL | 12.5 µg/mL (≈ 23.3 µM) | < 0.4 µg/mL | 1.56 µg/mL (≈ 2.9 µM) | 6.25 µg/mL (≈ 11.6 µM) | 1.56 µg/mL (≈ 2.9 µM) | < 0.4 µg/mL | – | – | –
CC1(C)S[C@@H]2[C@H](NC(=O)[C@H](NC(=O)c3cc4ccc(O)cc4oc3=O)c3ccccc3)C(=O)N2[C@H]1C(=O)O [Example 11, D(-)-α-(7-Hydroxycoumarin-3-carbonamido)benzylpenicillin] | 25 µg/mL (≈ 46.5 µM) | 12.5 µg/mL (≈ 23.3 µM) | 12.5 µg/mL (≈ 23.3 µM) | 100 µg/mL (≈ 186 µM) | < 0.4 µg/mL | 200 µg/mL (≈ 372 µM) | < 0.4 µg/mL | 12.5 µg/mL (≈ 23.3 µM) | < 0.4 µg/mL | 50 µg/mL (≈ 93 µM) | 25 µg/mL (≈ 46.5 µM) | 6.25 µg/mL (≈ 11.6 µM) | 3.13 µg/mL (≈ 5.82 µM) | 6.25 µg/mL (≈ 11.6 µM) | 12.5 µg/mL (≈ 23.3 µM) | < 0.4 µg/mL
COc1ccc2oc(=O)c(C(=O)N[C@@H](C(=O)N[C@@H]3C(=O)N4[C@@H]3SC(C)(C)[C@@H]4C(=O)O)c3ccccc3)cc2c1 [Example 7, D(-)-α-(6-Methoxycoumarin-3-carbonamido)benzylpenicillin] | 6.25 µg/mL (≈ 11.3 µM) | 3.13 µg/mL (≈ 5.67 µM) | 3.13 µg/mL (≈ 5.67 µM) | 25 µg/mL (≈ 45.3 µM) | < 0.4 µg/mL | 12.5 µg/mL (≈ 22.7 µM) | < 0.4 µg/mL | 3.13 µg/mL (≈ 5.67 µM) | < 0.4 µg/mL | 6.25 µg/mL (≈ 11.3 µM) | 3.13 µg/mL (≈ 5.67 µM) | 1.56 µg/mL (≈ 2.83 µM) | 1.56 µg/mL (≈ 2.83 µM) | 1.56 µg/mL (≈ 2.83 µM) | < 0.4 µg/mL | < 0.4 µg/mL
CC(=O)Oc1cccc2cc(C(=O)N[C@@H](C(=O)N[C@@H]3C(=O)N4[C@@H]3SC(C)(C)[C@@H]4C(=O)O)c3ccccc3)c(=O)oc12 [Example 21, D-α-(8-Acetoxycoumarin-3-carbonamido)benzylpenicillin] | 1.56 µg/mL (≈ 2.69 µM) | – | 3.13 µg/mL (≈ 5.4 µM) | 50 µg/mL (≈ 86.3 µM) | – | 12.5 µg/mL (≈ 21.6 µM) | < 0.4 µg/mL | 6.25 µg/mL (≈ 10.8 µM) | < 0.4 µg/mL | 1.56 µg/mL (≈ 2.69 µM) | 12.5 µg/mL (≈ 21.6 µM) | 0.8 µg/mL (≈ 1.38 µM) | < 0.4 µg/mL | 3.13 µg/mL (≈ 5.4 µM) | 0.8 µg/mL (≈ 1.38 µM) | –
COc1cccc2oc(=O)c(C(=O)N[C@@H](C(=O)N[C@@H]3C(=O)N4[C@@H]3SC(C)(C)[C@@H]4C(=O)O)c3ccccc3)cc12 [Example 24, D-α-(5-Methoxycoumarin-3-carbonamido)benzylpenicillin] | 3.13 µg/mL (≈ 5.67 µM) | 1.56 µg/mL (≈ 2.83 µM) | 3.13 µg/mL (≈ 5.67 µM) | 12.5 µg/mL (≈ 22.7 µM) | – | 25 µg/mL (≈ 45.3 µM) | < 0.4 µg/mL | 6.25 µg/mL (≈ 11.3 µM) | < 0.4 µg/mL | 3.13 µg/mL (≈ 5.67 µM) | 3.13 µg/mL (≈ 5.67 µM) | 1.56 µg/mL (≈ 2.83 µM) | 0.8 µg/mL (≈ 1.45 µM) | – | – | –
CCOc1cccc2cc(C(=O)N[C@@H](C(=O)N[C@@H]3C(=O)N4[C@@H]3SC(C)(C)[C@@H]4C(=O)O)c3ccccc3)c(=O)oc12 [Example 19, D(-)-α-(8-Ethoxycoumarin-3-carbonamido)benzylpenicillin] | 3.13 µg/mL (≈ 5.53 µM) | 6.25 µg/mL (≈ 11.1 µM) | 6.25 µg/mL (≈ 11.1 µM) | 12.5 µg/mL (≈ 22.1 µM) | < 0.4 µg/mL | 12.5 µg/mL (≈ 22.1 µM) | < 0.4 µg/mL | 6.25 µg/mL (≈ 11.1 µM) | < 0.4 µg/mL | 3.13 µg/mL (≈ 5.53 µM) | 3.13 µg/mL (≈ 5.53 µM) | 1.56 µg/mL (≈ 2.76 µM) | 1.56 µg/mL (≈ 2.76 µM) | 3.13 µg/mL (≈ 5.53 µM) | < 0.4 µg/mL | < 0.4 µg/mL
CC1(C)S[C@@H]2[C@H](NC(=O)[C@H](NC(=O)c3cc4cc(Br)cc(Br)c4oc3=O)c3ccccc3)C(=O)N2[C@H]1C(=O)O [Example 4, D(-)-α-(6,8-Dibromocoumarin-3-carbonamido)benzylpenicillin] | 100 µg/mL (≈ 147 µM) | 50 µg/mL (≈ 73.6 µM) | 200 µg/mL (≈ 294 µM) | 200 µg/mL (≈ 294 µM) | 1.56 µg/mL (≈ 2.3 µM) | 100 µg/mL (≈ 147 µM) | 1.56 µg/mL (≈ 2.3 µM) | 200 µg/mL (≈ 294 µM) | < 0.4 µg/mL | 25 µg/mL (≈ 36.8 µM) | 200 µg/mL (≈ 294 µM) | 50 µg/mL (≈ 73.6 µM) | 50 µg/mL (≈ 73.6 µM) | 50 µg/mL (≈ 73.6 µM) | 3.13 µg/mL (≈ 4.61 µM) | 3.13 µg/mL (≈ 4.61 µM)
